Columns and labels:
PAK4 = PAK4 (Homo sapiens, UniProt O96013); experiment: Kinobeads competition binding, L-363 cell lysate; set-up: endogenous in cells; host or cells: L-363 (MG132-treated); settings: 10 μM free compound, L-363 lysate
Protocol: (§1) To one aliquot of cell lysate 10 μM of the free compound (FIG. 3, CZC31326) was added and allowed to bind to proteins in the lysate. Then the affinity matrix with the immobilized compound was added to capture proteins that were not interacting with the previously added free compound. Beads were separated from the lysate and bead bound proteins were eluted in SDS sample buffer and subsequently separated by SDS-Polyacrylamide gel electrophoresis (FIG. 8). Suitable gel bands were cut out and subjected to in-gel proteolytic digestion with trypsin. The second lysate aliquot was processed identically, however no free compound was added (DMSO solvent control). Peptides originating from samples 1 and 2 were labeled with iTRAQ reagents (iTRAQ 114 and iTRAQ 117) and the combined samples were analyzed with a nano-flow liquid chromatography system coupled online to a tandem mass spectrometer (LC-MS/MS) experiment followed by iTRAQ reporter ion quantification in the MS/MS spectra as described in Example 2.
(§2) For this experiment the human plasma cell leukaemia line L-363 was used (German Collection of Microorganisms and Cell Cultures, DSMZ number ACC49, Braunschweig, Germany). Cells were treated for three hours with 20 μM of the proteasome inhibitor MG132 (Z-Leu-Leu-Leu-al, Sigma C2211) prior to cell harvesting.

JNK1 = JNK1 (Homo sapiens, UniProt P45983); experiment: Kinobeads competition binding, HeLa Placenta lysate mix; set-up: Identified kinases from HeLa Placenta lysate mix with CZC31326; endogenous in cells; host or cells: HeLa cell lysate mixed with placenta tissue lysate; settings: 10 μM free compound
Protocol: as §1, with “10).” for “8).”

STK33 = STK33 (Homo sapiens, UniProt Q9BYT3); experiment: Kinobeads competition binding, L-363 cell lysate; set-up: endogenous in cells; host or cells: L-363 cells (treated with MG132 before harvest); settings: 10 μM free compound, L-363 lysate
Protocol: as §1, §2

PLK4 = PLK4 (Homo sapiens, UniProt O00444); experiment: Kinobeads competition binding, L-363 cell lysate; set-up: endogenous in cells; host or cells: L-363 cells (treated with MG132 before harvest); settings: 10 μM free compound, L-363 lysate
Protocol: as §1, §2

PITSLRE = experiment: Kinobeads competition binding, HL60 cell lysate; set-up: species or system human; settings: 10 μM free compound
Protocol: To one aliquot of cell lysate 10 μM of the free compound (FIG. 3, CZC31326) was added and allowed to bind to proteins in the lysate. Then the affinity matrix with the immobilized compound (Example 1) was added to capture proteins that were not interacting with the previously added free compound. Beads were separated from the lysate and bead bound proteins were eluted in SDS sample buffer and subsequently separated by SDS-Polyacrylamide gel electrophoresis (FIG. 4). Suitable gel bands were cut out and subjected to in-gel proteolytic digestion with trypsin. The second lysate aliquot was processed identically, however no free compound was added (DMSO solvent control). Peptides originating from samples 1 and 2 were labeled with iTRAQ reagents (iTRAQ 114 and iTRAQ 117) and the combined samples were analyzed with a nano-flow liquid chromatography system coupled online to a tandem mass spectrometer (LC-MS/MS) experiment followed by iTRAQ reporter ion quantification in the MS/MS spectra (Ross et al., 2004. Mol. Cell. Proteomics 3(12):1154-1169). […] The iTRAQ reagents are a set of multiplexed, amine-specific, stable isotope reagents that can label peptides on amino groups in up to four different biological samples enabling simultaneous identification and quantitation of peptides. […]

Sequence of STK33 (Q9BYT3 whole entry): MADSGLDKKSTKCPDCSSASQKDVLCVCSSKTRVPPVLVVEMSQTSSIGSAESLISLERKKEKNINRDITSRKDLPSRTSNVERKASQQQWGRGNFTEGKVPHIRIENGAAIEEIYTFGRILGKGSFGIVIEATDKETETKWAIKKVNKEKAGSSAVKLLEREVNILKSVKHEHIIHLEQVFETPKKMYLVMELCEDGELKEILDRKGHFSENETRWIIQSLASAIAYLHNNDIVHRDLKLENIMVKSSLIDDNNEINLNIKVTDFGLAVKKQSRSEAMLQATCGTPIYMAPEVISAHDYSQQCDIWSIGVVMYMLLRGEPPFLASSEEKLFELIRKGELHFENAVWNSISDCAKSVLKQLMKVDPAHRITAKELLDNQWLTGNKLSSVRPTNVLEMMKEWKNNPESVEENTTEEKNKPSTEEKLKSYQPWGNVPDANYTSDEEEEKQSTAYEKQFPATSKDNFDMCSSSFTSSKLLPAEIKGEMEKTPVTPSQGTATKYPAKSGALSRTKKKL
Sequence of JNK1 (P45983 whole entry): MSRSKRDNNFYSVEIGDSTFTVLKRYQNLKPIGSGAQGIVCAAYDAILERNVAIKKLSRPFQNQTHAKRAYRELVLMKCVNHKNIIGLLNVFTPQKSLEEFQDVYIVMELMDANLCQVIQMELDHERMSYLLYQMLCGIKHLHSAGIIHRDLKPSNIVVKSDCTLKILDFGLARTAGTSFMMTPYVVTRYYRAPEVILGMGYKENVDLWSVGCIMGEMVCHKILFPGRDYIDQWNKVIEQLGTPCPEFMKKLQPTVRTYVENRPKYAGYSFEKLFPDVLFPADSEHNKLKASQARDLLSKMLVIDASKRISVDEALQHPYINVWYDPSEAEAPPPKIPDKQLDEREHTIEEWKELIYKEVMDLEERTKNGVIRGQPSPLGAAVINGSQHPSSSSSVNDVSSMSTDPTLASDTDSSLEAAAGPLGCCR
Sequence of PAK4 (O96013 whole entry): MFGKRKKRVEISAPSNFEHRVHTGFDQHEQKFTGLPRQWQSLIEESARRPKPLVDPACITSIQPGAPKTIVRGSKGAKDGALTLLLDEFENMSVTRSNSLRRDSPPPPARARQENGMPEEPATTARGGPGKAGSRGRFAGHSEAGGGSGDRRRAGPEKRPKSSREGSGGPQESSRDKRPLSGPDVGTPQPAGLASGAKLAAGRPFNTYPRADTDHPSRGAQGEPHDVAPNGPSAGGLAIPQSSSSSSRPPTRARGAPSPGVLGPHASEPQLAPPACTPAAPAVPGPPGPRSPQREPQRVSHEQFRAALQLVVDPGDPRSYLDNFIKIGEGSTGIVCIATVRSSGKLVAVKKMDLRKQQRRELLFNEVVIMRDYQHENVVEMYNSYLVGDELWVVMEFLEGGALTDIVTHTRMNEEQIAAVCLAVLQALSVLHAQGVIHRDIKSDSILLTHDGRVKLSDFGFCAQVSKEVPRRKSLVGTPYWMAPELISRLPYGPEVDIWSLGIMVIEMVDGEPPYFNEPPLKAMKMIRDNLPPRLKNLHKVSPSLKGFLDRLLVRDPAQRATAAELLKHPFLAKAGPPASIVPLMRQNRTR
Sequence of PLK4 (O00444 whole entry): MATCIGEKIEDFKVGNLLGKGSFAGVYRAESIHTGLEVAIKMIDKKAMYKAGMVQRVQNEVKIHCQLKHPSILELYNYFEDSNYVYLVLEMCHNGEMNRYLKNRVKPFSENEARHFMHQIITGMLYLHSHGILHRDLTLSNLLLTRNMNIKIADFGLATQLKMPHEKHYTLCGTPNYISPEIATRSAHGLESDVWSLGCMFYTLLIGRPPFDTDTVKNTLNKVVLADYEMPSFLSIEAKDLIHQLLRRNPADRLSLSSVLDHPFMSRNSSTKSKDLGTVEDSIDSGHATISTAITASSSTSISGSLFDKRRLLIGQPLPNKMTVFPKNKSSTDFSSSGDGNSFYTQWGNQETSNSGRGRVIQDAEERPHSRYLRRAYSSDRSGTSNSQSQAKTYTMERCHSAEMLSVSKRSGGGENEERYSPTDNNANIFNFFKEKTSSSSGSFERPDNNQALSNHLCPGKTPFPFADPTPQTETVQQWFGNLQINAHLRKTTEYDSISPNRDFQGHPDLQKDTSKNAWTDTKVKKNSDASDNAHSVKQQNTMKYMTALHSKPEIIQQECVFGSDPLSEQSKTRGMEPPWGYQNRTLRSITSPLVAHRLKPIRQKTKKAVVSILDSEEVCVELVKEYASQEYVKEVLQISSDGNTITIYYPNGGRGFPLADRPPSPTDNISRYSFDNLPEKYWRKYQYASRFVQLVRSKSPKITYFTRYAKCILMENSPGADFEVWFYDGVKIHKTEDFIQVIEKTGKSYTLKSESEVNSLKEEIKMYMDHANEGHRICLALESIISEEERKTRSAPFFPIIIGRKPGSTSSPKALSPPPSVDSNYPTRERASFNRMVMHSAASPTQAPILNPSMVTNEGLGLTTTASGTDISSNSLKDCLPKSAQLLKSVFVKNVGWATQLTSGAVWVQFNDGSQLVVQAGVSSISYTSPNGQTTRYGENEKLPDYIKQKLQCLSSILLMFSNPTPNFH

inhibition at 10 µM (PAK4): 97.3% | Competition % (JNK1): 85% | inhibition at 10 µM (STK33): 95.7% | inhibition at 10 µM (PLK4): 91.2%
Structure (SMILES): CS(=O)(=O)Nc1ccccc1Nc1nc(Nc2cccc(OCCN)c2)ncc1Cl [CZC31326, N-(2-(2-(3-(2-aminoethoxy)phenylamino)-5-chloropyrimidin-4-ylamino)phenyl)methanesulfonamide]
Competition % (PITSLRE): 94.8%
